Measured values: patent US20090291104A1 (Florida Atlantic University, priority 2005, published 2009)
Bridge positions count the residues as written; N and C are the ends. Peptide text beside a SMILES is read from it.

What was measured:
[1] = molecular target: T1, Kv1.3 (Homo sapiens, UniProt P22001)
[2] = molecular target: T1, Kv1.3; experiment: cell-based
[3] = test system: K+ channels in PC12 cells
[4] = molecular target: Kv1.3 potassium channel (transiently transfected into HEK293 cells); experiment: cell-based or functional assay
[5] = molecular target: Kv1.3 potassium channel (transiently transfected into HEK293 cells)

T1 sequence (P22001 whole entry): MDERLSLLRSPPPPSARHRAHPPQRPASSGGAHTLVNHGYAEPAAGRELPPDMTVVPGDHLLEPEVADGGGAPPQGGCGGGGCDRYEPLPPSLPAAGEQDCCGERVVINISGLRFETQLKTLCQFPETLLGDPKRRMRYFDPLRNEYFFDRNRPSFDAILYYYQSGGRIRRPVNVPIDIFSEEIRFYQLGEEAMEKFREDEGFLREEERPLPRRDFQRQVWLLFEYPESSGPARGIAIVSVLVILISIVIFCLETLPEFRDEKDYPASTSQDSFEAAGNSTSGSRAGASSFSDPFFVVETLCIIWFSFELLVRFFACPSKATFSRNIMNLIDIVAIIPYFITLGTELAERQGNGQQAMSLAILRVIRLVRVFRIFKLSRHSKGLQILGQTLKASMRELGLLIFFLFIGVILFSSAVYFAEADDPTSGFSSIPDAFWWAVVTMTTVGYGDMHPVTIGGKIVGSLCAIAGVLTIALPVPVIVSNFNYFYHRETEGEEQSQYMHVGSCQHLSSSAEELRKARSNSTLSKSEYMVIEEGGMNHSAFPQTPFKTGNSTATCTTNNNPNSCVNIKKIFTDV

Compound	V50 of steady-state activation curve (Boltzmann fit) [1]	V50 of steady-state current-voltage relationship [1]	V50 of steady-state current-voltage relationship after washing the toxin [1]	reduction of Kv1.3 currents [1]	reversibility of block [1]	voltage dependence of reduction in K+ current [1]	Kd [2]	block of K+ channels [3]	reduction of Kv1.3 K+ currents (whole-cell voltage clamp, HEK293) [4]	Kd [5]
CC[C@H](C)[C@@H]1NC(=O)[C@@H](NC(=O)[C@H](CCCNC(=N)N)NC(=O)CNC(=O)[C@H](CC(C)C)NC(=O)CNC(=O)CN)CSSC[C@@H](C(=O)N[C@@H](Cc2ccc(O)cc2)C(=O)O)NC(=O)[C@H](CCSC)NC(=O)[C@H]([C@@H](C)O)NC(=O)[C@H](CCCCN)NC(=O)[C@@H]2CSSC[C@H](NC(=O)[C@H](CC(N)=O)NC(=O)[C@H](Cc3ccc(O)cc3)NC1=O)C(=O)N[C@@H](CCSC)C(=O)N[C@@H](CC(N)=O)C(=O)N[C@@H](CO)C(=O)NCC(=O)NCC(=O)NCC(=O)N[C@@H](CC(C)C)C(=O)N[C@@H](CO)C(=O)N[C@@H](Cc1ccccc1)C(=O)N[C@@H]([C@@H](C)CC)C(=O)N[C@@H](CCC(N)=O)C(=O)N2 [vil14a] (H-GGLGRCIYNCMNSGGGLSFIQCKTMCY-OH; disulfide 6-26, 10-22)	+9 mV	19 mV	−4.4 mV	≈ 39%	reversible	voltage dependent	15.6 µM	blocks K^+ channels		
vil14a conotoxin (framework 14 conotoxin from Conus villepinii) (peptide)									39%	15.6 µM
